According to patent EP0186173A2, “L-Aminodicarboxylic-(0-cycloalkyl)-L-aminocarboxylate alkyl esters, an edible composition containing same as sweeteners and a method for sweetening an edible composition” (GENERAL FOODS CORPORATION, priority 1984, dated 1986):
Where a SMILES comes first, the peptide text is derived from it. The star is where a group is joined. tBu = CC(C)(C)*

Columns and labels:
[1] = Sweetness taste panel: sucrose equivalency, aqueous solutions matched to sucrose standard solutions; conditions: relative to sucrose
Text: A taste procedure for determination of sweetness merely involves the determination.of sucrose equivalency. Sucrose equivalence for sweeteners are readily determined. The amount of a sweetener that is equivalent to a given weight percent sucrose can be determined by having a panel of tasters taste solutions of a sweetener at known concentrations and match its sweetness to standard solutionsof sucrose.
The following sensory evaluations were obtained by a panel of experts using known weight percent aqueous solutions of the above compound matched to sucrose standard solutions as previously described.

[2] = qualitative statement from prior art / literature; cited from earlier work

## CCOC(=O)[C@H](COC1(C)CCCC1)NC(=O)[C@@H](N)CC(=O)O [∝-L-Aspartyl-O-(1-methylcyclopentyl)-L-serine ethyl ester]
[1]
  sweetness equivalent: 150 x sucrose

## CCC(C)(C)OC[C@H](NC(=O)[C@@H](N)CC(=O)O)C(=O)OC [L-aspartyl-0-t-amyl-L-serine methyl ester]
[2]
  sweetness: significant sweetness

## COC(=O)[C@H](COC(C)(C)C)NC(=O)[C@@H](N)CC(=O)O [L-aspartyl-0-t,- butyl-L-serine methyl ester] (H-Asp-Ser(tBu)-OMe)
[2]
  sweetness: significant sweetness
